Where only a bound is given, the exact number is not on record here.

For the experiment, the target named is human cannabinoid CB2 receptor (Homo sapiens, UniProt P34972). Nature of the experiment: Cannabinoid CB2 receptor agonist activity (yeast reporter assay, FDGlu fluorescence). It is filed as cell-based. To be noted: for EC50: EC50 value at the cloned human cannabinoid CB2 receptor; for Emax: read-out: efficacy value (Emax relative to HU210) at the cloned human cannabinoid CB2 receptor. How it is done:
Determination of Cannabinoid CB2 Receptor Agonist Activity
The cannabinoid CB2 receptor agonist activity of the compounds of formula (I)-(IV) was determined in accordance with the following experimental method.
Yeast (Saccharomyces cerevisiae) cells expressing the human cannabinoid CB2 receptor were generated by integration of an expression cassette into the ura3 chromosomal locus of yeast strain MMY23. This cassette consisted of DNA sequence encoding the human CB2 receptor flanked by the yeast GPD promoter to the 5′ end of CB2 and a yeast transcriptional terminator sequence to the 3′ end of CB2. MMY23 expresses a yeast/mammalian chimeric G-protein alpha subunit in which the C-terminal 5 amino acids of Gpa1 are replaced with the C-terminal 5 amino acids of human Gαi3 (as described in Brown et al. (2000), Yeast 16:11-22). Cells were grown at 30° C. in liquid Synthetic Complete (SC) yeast media (Guthrie and Fink (1991), Methods in Enzymology, Vol. 194) lacking uracil, tryptophan, adenine and leucine to late logarithmic phase (approximately 6 OD600/ml).
Agonists were prepared as 10 mM stocks in DMSO. […] Agonist solutions in DMSO (1% final assay volume) were transferred into black, clear bottom, microtitre plates from NUNC (96- or 384-well). Cells were suspended at a density of 0.2 OD600/ml in SC media lacking histidine, uracil, tryptophan, adenine and leucine and supplemented with 10 mM 3-aminotriazole, 0.1M sodium phosphate pH 7.0, and […] fluorescein di-β-D-glucopyranoside (FDGlu). This mixture (50 ul per well for 384-well plates, 200 ul per well for 96-well plates) was added to agonist in the assay plates (Multidrop 384, Labsystems). After incubation at 30° C. for 24 hours, fluorescence resulting from degradation of FDGlu to fluorescein due to exoglucanase, an endogenous yeast enzyme produced during agonist-stimulated cell growth, was determined using a Spectrofluor microtitre plate reader (Tecan; excitation wavelength: 485 nm; emission wavelength: 535 nm). Fluorescence was plotted against compound concentration and iteratively curve fitted using a four parameter fit to generate a concentration effect value. Efficacy (Emax) was calculated from the equation
where Max[compound X] and Min[compound X] are the fitted maximum and minimum respectively from the concentration effect curve for compound X, and Max[HU210] and Min[HU210] are the fitted maximum and minimum respectively from the concentration effect curve for (6aR,10aR)-3-(1,1′-Dimethylheptyl)-6a,7,10,10a-tetrahydro-1-hydroxy-6,6-dimethyl-6H-dibenzo[b,d]pyran-9-methanol (HU210; available from Tocris). Equieffective molar ratio (EMR) values were calculated from the equation
Where EC50 [compound X] is the EC50 of compound X and EC50 [HU210] is the EC50 of HU210.

Sequence of human cannabinoid CB2 receptor (P34972 whole entry): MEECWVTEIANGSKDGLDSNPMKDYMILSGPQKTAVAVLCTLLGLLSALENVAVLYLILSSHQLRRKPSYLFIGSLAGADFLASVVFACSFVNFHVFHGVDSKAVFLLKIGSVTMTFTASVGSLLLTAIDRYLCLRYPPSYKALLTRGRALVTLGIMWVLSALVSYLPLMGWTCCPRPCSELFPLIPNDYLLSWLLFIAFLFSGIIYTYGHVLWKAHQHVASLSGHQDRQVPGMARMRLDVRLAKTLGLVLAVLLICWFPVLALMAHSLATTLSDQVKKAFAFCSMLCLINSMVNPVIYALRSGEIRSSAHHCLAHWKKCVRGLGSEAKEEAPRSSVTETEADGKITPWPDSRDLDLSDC

Consider `O=C(NCC1CCC1)c1cnc(Nc2c(Cl)cccc2Cl)nc1C(F)(F)F` [Example 203, 2-(2,6-Dichlorophenylamino)-4-trifluoromethyl-pyrimidine-5-carboxylic acid cyclobutylmethyl-amide], for which the EC50 is 0.02 to 0.3 µM and the Emax was over 50%. On to `O=C(NCc1ccc(F)cc1)c1cnc(Nc2cccc(Cl)c2F)nc1C(F)(F)F` [Example 348, 2-(3-Chloro-2-fluoro-phenylamino)-4-trifluoromethyl-pyrimidine-5-carboxylic acid 4-fluoro-benzylamide], for which the EC50 is 0.02 to 0.3 µM. With `O=C(NC1CCC1)c1cnc(Nc2cc(Cl)ccc2Cl)nc1C(F)(F)F` [Example 50, 2-(2,5-Dichlorophenylamino)-4-trifluoromethylpyrimidine-5-carboxylic acid cyclobutylamide], the EC50 was 0.02 to 0.3 µM and the Emax was over 50%. On to `O=C(NCC1(O)CCCCC1)c1cnc(Nc2cccc(Cl)c2)nc1C(F)(F)F` [Example 164, 2-(3-Chlorophenylamino)-4-trifluoromethyl-pyrimidine-5-carboxylic acid (1-hydroxycyclohexylmethyl)-amide], for which the EC50 was in the range of 0.02 to 0.3 µM and the Emax was over 50%. For the compound `O=C(NC1CCS(=O)(=O)CC1)c1cnc(Nc2ccc(Cl)cc2Cl)nc1C(F)(F)F` [Example 220, 2-(2,4-Dichloro-phenylamino)-4-trifluoromethyl-pyrimidine-5-carboxylic acid (1,1-dioxo-hexahydro-1l^6-thiopyran-4-yl)-amide], the EC50 is 0.02 to 0.3 µM and the Emax is over 50%. Consider `O=C(NCC1CCCCC1)c1cnc(Nc2ccc(F)cc2C(F)(F)F)nc1C(F)(F)F` [Example 100, 2-(2-Trifluoromethyl-4-fluorophenylamino)-4-trifluoromethyl-pyrimidine-5-carboxylic acid cyclohexylmethyl-amide], for which the EC50 lay in the range of 0.3 to 1 µM and the Emax was over 50%. Regarding `O=C(NCC1CCCCC1)c1cnc(Nc2cc(Cl)cc(Cl)c2)nc1C(F)(F)F` [Example 18, 2-(3,5-Dichlorophenylamino)-4-trifluoromethylprimidine-5-carboxylic acid cyclohexylmethyl-amide], the EC50 was 0.02 to 0.3 µM and the Emax is over 50%. For the compound `O=C(NCc1ccc(F)cc1)c1cnc(Nc2cc(Cl)cc(Cl)c2)nc1C(F)(F)F` [Example 290, 2-(3,5-Dichlorophenylamino)-4-trifluoromethylpyrimidine-5-carboxylic acid 4-fluorobenzyl-amide], the EC50 lay within 0.02 to 0.3 µM. Regarding `O=C(NCC1CCOCC1)c1cnc(Nc2ccc(OC(F)(F)F)c(Cl)c2)nc1C(F)(F)F` [Example 216, 2-(4-Trifluoromethoxy-3-chloro-phenylamino)-4-trifluoromethyl-pyrimidine-5-carboxylic acid (tetrahydro-pyran-4-ylmethyl)-amide], the EC50 lay in the range of 0.02 to 0.3 µM and the Emax was over 50%. As for `CN(CC1CCOCC1)C(=O)c1cnc(Nc2cccc(Cl)c2)nc1C(F)(F)F` [Example 211, 2-(3-Chlorophenylamino)-4-trifluoromethyl-pyrimidine-5-carboxylic acid methyl-(tetrahydro-pyran-4-ylmethyl)-amide], the EC50 is 0.02 to 0.3 µM and the Emax was over 50%. Take `N#Cc1ccc(Nc2ncc(C(=O)NCC3CCOCC3)c(C(F)(F)F)n2)cc1` [Example 175, 2-(4-Cyanophenylamino)-4-trifluoromethyl-pyrimidine-5-carboxylic acid (tetrahydropyran-4-ylmethyl)-amide]: the EC50 was 0.02 to 0.3 µM and the Emax is over 50%. In the case of `Cc1ccc(Nc2ncc(C(=O)NCC3CCOCC3)c(C(F)(F)F)n2)c(Cl)c1` [Example 110, 2-(2-Chloro-4-methyl-phenylamino)-4-tri-fluoromethyl-pyrimidine-5-carboxylic acid (tetrahydropyran-4-ylmethyl)-amide], the EC50 was 0.3 to 1 µM and the Emax was over 50%. `N#Cc1ccc(CNC(=O)c2cnc(Nc3cccc(Cl)c3)nc2C(F)(F)F)cc1` [Example 271, 2-(3-Chlorophenylamino)-4-trifluoromethylpyrimidine-5-carboxylic acid 4-cyanobenzyl-amide]: the EC50 is 0.02 to 0.3 µM and the Emax was over 50%. In the case of `N#Cc1ccc(Nc2ncc(C(=O)NCC3CCC3)c(C(F)(F)F)n2)cc1Cl` [Example 197], the Emax was over 50%. As for `O=C(NCC1CCC1)c1cnc(Nc2ccc(F)cc2Cl)nc1C(F)(F)F` [Example 224, 2-(2-Chloro-4-fluoro-phenylamino)-4-trifluoromethyl-pyrimidine-5-carboxylic acid cyclobutylmethyl-amide], the EC50 was in the range of 0.02 to 0.3 µM and the Emax was over 50%. With `O=C(NCC1CCOCC1)c1cnc(Nc2ccc(Cl)c(Cl)c2)nc1C(F)(F)F` [Example 250, 2-(3,4-Dichlorophenylamino)-4-trifluoromethylpyrimidine-5-carboxylic acid (tetrahydro-pyran-4-ylmethyl)-amide], the EC50 lay within 0.02 to 0.3 µM and the Emax was over 50%. `O=C(NCC1CCOCC1)c1cnc(Nc2cc(Cl)ccc2Cl)nc1C(F)(F)F` [Example 35, 2-(2,5-Dichlorophenylamino)-4-trifluoromethylpyrimidine-5-carboxylic acid (tetrahydropyran-4-ylmethyl)-amide]: the EC50 lay within 0.02 to 0.3 µM and the Emax is over 50%. Regarding `CN(Cc1ccccc1)C(=O)c1cnc(Nc2cccc(Cl)c2)nc1C(F)(F)F` [Example 268, 2-(3-Chlorophenylamino)-4-trifluoromethylpyrimidine-5-carboxylic acid N-benzyl-N-methylamide], the EC50 was 0.02 to 0.3 µM. As for `O=C(NCC1CCOCC1)c1cnc(Nc2cccc(Br)c2)nc1C(F)(F)F` [Example 32, 2-(3-Bromophenylamino)-4-trifluoromethylpyrimidine-5-carboxylic acid (tetrahydropyran-4-ylmethyl)amide], the EC50 lay within 0.02 to 0.3 µM and the Emax is over 50%. Regarding `O=C(NCc1ccc(F)cc1)c1cnc(Nc2ccc(Cl)cc2Cl)nc1C(F)(F)F` [Example 365, 2-(2,4-Dichloro-phenylamino)-4-trifluoromethyl-pyrimidine-5-carboxylic acid 4-fluoro-benzylamide], the EC50 lay in the range of 0.02 to 0.3 µM.

Consider `N#Cc1ccc(Nc2ncc(C(=O)NCC3CCCCC3)c(C(F)(F)F)n2)c(Cl)c1` [Example 237, 2-(2-Chloro-4-cyano-phenylamino)-4-trifluoromethyl-pyrimidine-5-carboxylic acid cyclohexylmethyl-amide], for which the EC50 was in the range of 0.02 to 0.3 µM and the Emax was over 50%.

As to `O=C(NC1CC1)c1cnc(Nc2cccc(Cl)c2)nc1C(F)(F)F` [Example 209, 2-(3-Chlorophenylamino)-4-trifluoromethyl-pyrimidine-5-carboxylic acid cyclopropylamide], the EC50 fell in the range of 0.02 to 0.3 µM and the Emax was over 50%.

In the case of `CN(CC1CCC1)C(=O)c1cnc(Nc2cccc(Cl)c2)nc1C(F)(F)F` [Example 188, 2-(3-Chlorophenylamino)-4-trifluoromethyl-pyrimidine-5-carboxylic acid cyclobutylmethyl-methyl-amide], the EC50 is 0.02 to 0.3 µM and the Emax was over 50%. As for `O=C(c1cnc(Nc2ccc(Cl)cc2Cl)nc1C(F)(F)F)N1CCOCC1` [Example 7, 1-[2-(2,4-Dichlorophenylamino)-4-trifluoromethylpyrimidin-5-yl]-1-morpholin-4-yl-methanone], the EC50 is 0.02 to 0.3 µM and the Emax was over 50%. As for `Cc1cccc(Nc2ncc(C(=O)NCC3CCCCC3)c(C(F)(F)F)n2)c1Cl` [Example 92, 2-(2-Chloro-3-methyl-phenylamino)-4-trifluoromethyl-pyrimidine-5-carboxylic acid cyclohexylmethyl-amide], the EC50 fell in the range of 0.3 to 1 µM and the Emax is over 50%. Take `O=C(NCC1CCCC1)c1cnc(Nc2cc(Cl)ccc2Cl)nc1C(F)(F)F` [Example 42, 2-(2,5-Dichlorophenylamino)-4-trifluoromethylpyrimidine-5-carboxylic acid cyclopentylmethyl-amide]: the EC50 was 0.02 to 0.3 µM and the Emax was over 50%.

What is called EC50 is the concentration giving half of the maximal effect. The term Emax denotes the maximal effect, on the per cent scale that the assay sets.

These data come from patent US20080132505A1 (Glaxo Group Limited, priority 2004, published 2008).
